Laboratory results published in US10993957B2 (NuCana plc, priority 2011, dated 2021).
Read-outs that look alike come from different tables or passages of the source.

Columns and labels:
L1210/0 = test: Cytostatic assay, L1210/0 cells; type: cell-based, murine; settings: Mus musculus
Source text: (§1) The cell lines employed were L1210/0 (a leukemia cell line), FM3A/0 (a breast cancer cell line), Cem/0 (an acute lymphoblastic leukemia cell line) and HeLa (a cervical cell line).

L1210/TK^− = test: Cytostatic assay, thymidine kinase-deficient L1210/TK^− cells; type: cell-based, murine; settings: Mus musculus
Cem/0 = test: Cytostatic assay, CEM/0 cells; type: cell-based, human; settings: Homo sapiens, CCRF-CEM; for CC50: read-out: CC50 Cem/0; for IC50: read-out: IC50 Cem/0
Source text: as §1

Cem/TK^− = test: Cytostatic assay, thymidine kinase-deficient CEM/TK^− cells; type: cell-based, human; settings: Homo sapiens, CEM-TK(-); for CC50: read-out: CC50 Cem/TK^−; for IC50: read-out: IC50 Cem/TK^−
HeLa = test: Cytostatic assay, HeLa cells; type: cell-based; settings: Homo sapiens, HeLa; for CC50: read-out: CC50 HeLa; for IC50: read-out: IC50 HeLa
Source text: as §1

HeLa/TK^− = test: Cytostatic assay, HeLa/TK^− cells; type: cell-based; settings: Homo sapiens, HeLa; for CC50: read-out: CC50 HeLa/TK^−; for IC50: read-out: IC50 HeLa/TK^−
Source text: as §1

L1210.Hyor = test: Cytostatic assay, Mycoplasma hyorhinis-infected L1210 cells; settings: for % Retention: CC50 L1210 × 100 ÷ CC50 L1210/Hyor; for CC50 / IC50: Mus musculus; for CC50: L1210, read-out: CC50 L1210/Hyor; for IC50: L1210, read-out: IC50 L1210.Hyor; for IC50(L1210.Hyor)/IC50(L1210/0): Table 7
Source text: Murine leukaemia L1210/0 and human T-lymphocyte CEM/0 cells were obtained from the American Type Culture Collection (ATCC) (Rockville, Md.). Human glioblastoma U87 cells were kindly provided by Dr. E. Menue (Institut Pasteur, Paris, France). […] S. Eriksson (currently at Uppsala University, Uppsala, Sweden) and Prof A. Karlsson (Karolinska Institute, Stockholm, Sweden). […] All cells were maintained in Dulbecco's modified Eagle's medium (DMEM) (Invitrogen, Carlsbad, Calif.) with 10% foetal bovine serum (FBS) (Biochrom AG, Berlin, Germany), 10 mM Hepes and 1 mM Sodium Pyruvate (Invitrogen). Cells were grown at 37° C. in a humidified incubator with a gas phase of 5% CO2.
Monolayer cells (U87 and U87.Hyor) were seeded in 48-well microtiter plates (Nunc™, Roskilde, Denmark) at 10,000 cells/well. After 24 hours, an equal volume of fresh medium containing the test compounds was added. On day 5, cells were trypsinized and counted in a Coulter counter (Analis, Suarlée, Belgium). Suspension cells (L1210/0, L1210/TK^−, L1210.Hyor, CEM/0, CEM/TK^−) were seeded in 96-well microtiter plates (Nunc™) at 60,000 cells/well in the presence of a given amount of the test compounds. The cells were allowed to proliferate for 48 h (L1210) or 72 hours (CEM) and were then counted in a Coulter counter.
Samples were also assayed for their % retention of activity in mycoplasma infected cells.
The L1210/0 cell cultures were infected with the mycoplasma species M. hyorhinis (cells designated: L1210.Hyor).

[1] = L1210/0, Table 1, read-out: CC50 L1210/0
[2] = L1210/0, Table 2, mycoplasma negative cells, read-out: CC50 L1210
[3] = L1210/0, Table 6, read-out: IC50 L1210/0
[4] = L1210/0, Table 7, read-out: IC50 L1210/0
[5] = L1210, Table 1, read-out: CC50 L1210/TK^−
[6] = L1210, Table 6, read-out: IC50 L1210/TK^−

## C[C@H](NP(=O)(OC[C@H]1O[C@@H](n2cc(F)c(=O)[nH]c2=O)CC1O)Oc1cccc2ccccc12)C(=O)OC1CCC1 (stereo partly drawn) [CPF 578, 5-Fluoro-2′-deoxyuridine-5′-O-[1-naphthyl-(cyclobutoxy-L-alaninyl)]phosphate]
L1210/0; [1]
  CC50: 14 ± 3 nM
L1210/0; [2]
  CC50: 15 nM
L1210/0; [3]
  IC50: 14 ± 3 nM
L1210/0; [4]
  IC50: 11 ± 1.4 nM
L1210/TK^−; [5]
  CC50: 88 ± 38 nM
L1210/TK^−; [6]
  IC50: 88 ± 38 nM
Cem/0; Table 1
  CC50: 73 ± 18 nM
Cem/0; Table 6
  IC50: 73 ± 18 nM
Cem/TK^−; Table 1
  CC50: 1500 ± 300 nM
Cem/TK^−; Table 6
  IC50: 1500 ± 300 nM
HeLa; Table 1
  CC50: 69 ± 3 nM
HeLa; Table 6
  IC50: 69 ± 3 nM
HeLa/TK^−; Table 1
  CC50: 1500 ± 600 nM
HeLa/TK^−; Table 6
  IC50: 1500 ± 600 nM
L1210.Hyor
  % Retention: 31%
  CC50: 48 nM
  IC50: 24 ± 0.14 nM
  IC50(L1210.Hyor)/IC50(L1210/0): 2.2

## C[C@H](NP(=O)(OC[C@H]1O[C@@H](n2cc(F)c(=O)[nH]c2=O)CC1O)Oc1cccc2ccccc12)C(=O)OCC1CC1 (stereo partly drawn) [CPF 579, 5-Fluoro-2′-deoxyuridine-5′-O-[1-naphthyl-(cyclopropylmethanoxy-L-alaninyl)] phosphate]
L1210/0; [1]
  CC50: 17 ± 7 nM
L1210/0; [2]
  CC50: 19 nM
L1210/0; [3]
  IC50: 17 ± 7 nM
L1210/0; [4]
  IC50: 14 ± 4.2 nM
L1210/TK^−; [5]
  CC50: 120 ± 60 nM
L1210/TK^−; [6]
  IC50: 120 ± 60 nM
Cem/0; Table 1
  CC50: 59 ± 17 nM
Cem/0; Table 6
  IC50: 59 ± 17 nM
Cem/TK^−; Table 1
  CC50: 1100 ± 200 nM
Cem/TK^−; Table 6
  IC50: 1100 ± 200 nM
HeLa; Table 1
  CC50: 68 ± 1 nM
HeLa; Table 6
  IC50: 68 ± 1 nM
HeLa/TK^−; Table 1
  CC50: 1400 ± 400 nM
HeLa/TK^−; Table 6
  IC50: 1400 ± 400 nM
L1210.Hyor
  % Retention: 42%
  CC50: 45 nM
  IC50: 31 ± 6.4 nM
  IC50(L1210.Hyor)/IC50(L1210/0): 2.2

## C[C@H](NP(=O)(OC[C@H]1O[C@@H](n2cc(F)c(=O)[nH]c2=O)CC1O)Oc1cccc2ccccc12)C(=O)OC1CCOCC1 (stereo partly drawn) [CPF 580, 5-Fluoro-2′-deoxyuridine-5′-O-[1-naphthyl-(tetrahydropyroxy-L-alaninyl)]phosphate]
L1210/0; [1]
  CC50: 38 ± 14 nM
L1210/0; [2]
  CC50: 48 nM
L1210/0; [3]
  IC50: 38 ± 14 nM
L1210/0; [4]
  IC50: 41 ± 2.8 nM
L1210/TK^−; [5]
  CC50: 27000 ± 6000 nM
L1210/TK^−; [6]
  IC50: 27000 ± 6000 nM
Cem/0; Table 1
  CC50: 110 ± 20 nM
Cem/0; Table 6
  IC50: 110 ± 20 nM
Cem/TK^−; Table 1
  CC50: 43000 ± 12000 nM
Cem/TK^−; Table 6
  IC50: 43000 ± 12000 nM
HeLa; Table 1
  CC50: 130 ± 40 nM
HeLa; Table 6
  IC50: 130 ± 40 nM
HeLa/TK^−; Table 1
  CC50: 15000 ± 7000 nM
HeLa/TK^−; Table 6
  IC50: 15000 ± 7000 nM
L1210.Hyor
  % Retention: 12%
  CC50: 410 nM
  IC50: 480 ± 110 nM
  IC50(L1210.Hyor)/IC50(L1210/0): 11.7

## CCCCCOC(=O)[C@H](C)NP(=O)(OC[C@H]1O[C@@H](n2cc(F)c(=O)[nH]c2=O)CC1O)Oc1cccc2ccccc12 (stereo partly drawn) [CPF 581, 5-Fluoro-2′-deoxyuridine-5′-O-[1-naphthyl-(pentoxy-L-alaninyl)] phosphate]
L1210/0; [1]
  CC50: 2.8 ± 1 nM
L1210/0; [2]
  CC50: 3.7 nM
L1210/0; [3]
  IC50: 2.8 ± 1 nM
L1210/0; [4]
  IC50: 2.1 ± 0.07 nM
L1210/TK^−; [5]
  CC50: 130 ± 130 nM
L1210/TK^−; [6]
  IC50: 130 ± 130 nM
Cem/0; Table 1
  CC50: 15 ± 6 nM
Cem/0; Table 6
  IC50: 15 ± 6 nM
Cem/TK^−; Table 1
  CC50: 280 ± 40 nM
Cem/TK^−; Table 6
  IC50: 280 ± 40 nM
HeLa; Table 1
  CC50: 29 ± 23 nM
HeLa; Table 6
  IC50: 29 ± 23 nM
HeLa/TK^−; Table 1
  CC50: 440 ± 350 nM
HeLa/TK^−; Table 6
  IC50: 440 ± 350 nM
L1210.Hyor
  % Retention: 22%
  CC50: 17 nM
  IC50: 6 ± 1.4 nM
  IC50(L1210.Hyor)/IC50(L1210/0): 2.9

## C[C@H](NP(=O)(OC[C@H]1O[C@@H](n2cc(F)c(=O)[nH]c2=O)CC1O)Oc1cccc2ccccc12)C(=O)OC1CCCC1 (stereo partly drawn) [CPF 582, 5-Fluoro-2′-deoxyuridine-5′-O-[1-naphthyl-(cyclopentoxy-L-alaninyl)]phosphate]
L1210/0; [1]
  CC50: 31 ± 10 nM
L1210/0; [2]
  CC50: 35 nM
L1210/0; [3]
  IC50: 31 ± 10 nM
L1210/0; [4]
  IC50: 16 ± 0.7 nM
L1210/TK^−; [5]
  CC50: 130 ± 20 nM
L1210/TK^−; [6]
  IC50: 130 ± 20 nM
Cem/0; Table 1
  CC50: 35 ± 25 nM
Cem/0; Table 6
  IC50: 350 ± 25 nM
Cem/TK^−; Table 1
  CC50: 920 ± 7 nM
Cem/TK^−; Table 6
  IC50: 920 ± 7 nM
HeLa; Table 1
  CC50: 71 ± 36 nM
HeLa; Table 6
  IC50: 71 ± 36 nM
HeLa/TK^−; Table 1
  CC50: 2200 ± 1300 nM
HeLa/TK^−; Table 6
  IC50: 2200 ± 1300 nM
L1210.Hyor
  % Retention: 83%
  CC50: 42 nM
  IC50: 24 ± 5 nM
  IC50(L1210.Hyor)/IC50(L1210/0): 1.5

## O=C(OCc1ccccc1)C1CCCN1P(=O)(OC[C@H]1O[C@@H](n2cc(F)c(=O)[nH]c2=O)CC1O)Oc1ccccc1 (stereo partly drawn) [CPF 583, 5-Fluoro-2′-deoxyuridine-5′-O-[phenyl(benzoxy-L-prolinyl)] phosphate]
L1210/0; L1210/0, read-out: CC50 L1210
  CC50: 387 nM
L1210/0; L1210/0, read-out: CC50 L1210/0
  CC50: 350 ± 70 nM
L1210/0; L1210/0, read-out: IC50 L1210/0, Table 6
  IC50: 350 ± 70 nM
L1210/0; L1210/0, read-out: IC50 L1210/0, Table 7
  IC50: 350 ± 22 nM
L1210/TK^−; L1210, read-out: CC50 L1210/TK^−
  CC50: 31000 ± 5000 nM
L1210/TK^−; L1210, read-out: IC50 L1210/TK^−
  IC50: 31000 ± 5000 nM
Cem/0
  CC50: 980 ± 400 nM
  IC50: 980 ± 400 nM
Cem/TK^−
  CC50: 28000 ± 8000 nM
  IC50: 28000 ± 8000 nM
HeLa
  CC50: 1100 ± 400 nM
  IC50: 1100 ± 400 nM
HeLa/TK^−
  CC50: 20000 ± 11000 nM
  IC50: 20000 ± 11000 nM
L1210.Hyor
  % Retention: 3.3%
  CC50: 11900 nM
  IC50: 18000 ± 710 nM
  IC50(L1210.Hyor)/IC50(L1210/0): 51

## C[C@H](NP(=O)(OC[C@H]1O[C@@H](n2cc(F)c(=O)[nH]c2=O)CC1O)Oc1cccc2ccccc12)C(=O)OCCC(C)(C)C (stereo partly drawn) [CPF 585, 5-Fluoro-2′-deoxyuridine-5′-O-[1-naphthyl(3,3-dimethyl-1-butoxy-L-alaninyl)] phosphate]
L1210/0; [1]
  CC50: 16 ± 6 nM
L1210/0; [2]
  CC50: 21 nM
L1210/0; [3]
  IC50: 16 ± 6 nM
L1210/0; [4]
  IC50: 12 ± 1.8 nM
L1210/TK^−; [5]
  CC50: 62 ± 9 nM
L1210/TK^−; [6]
  IC50: 62 ± 9 nM
Cem/0; Table 1
  CC50: 53 ± 21 nM
Cem/0; Table 6
  IC50: 53 ± 21 nM
Cem/TK^−; Table 1
  CC50: 190 ± 40 nM
Cem/TK^−; Table 6
  IC50: 190 ± 40 nM
HeLa; Table 1
  CC50: 78 ± 18 nM
HeLa; Table 6
  IC50: 78 ± 18 nM
HeLa/TK^−; Table 1
  CC50: 1300 ± 900 nM
HeLa/TK^−; Table 6
  IC50: 1300 ± 900 nM
L1210.Hyor
  % Retention: 41%
  CC50: 51 nM
  IC50: 32 ± 8.8 nM
  IC50(L1210.Hyor)/IC50(L1210/0): 2.7
